Source: patent publication US20090181948A1, “DIAMINE DERIVATIVE” (KYOWA HAKKO KOGYO CO., LTD., priority 2005, published 2009)

Columns and labels:
histamine H3 receptor = molecular target: T1, histamine H3 receptor (Rattus norvegicus, UniProt Q9QYN8); test: Histamine H3 receptor binding assay ([3H]-Nα-methylhistamine binding to rat striatum homogenate); details: for inhibition at 1 µM: 1 μmol/L test compound, [3H]-Nα-methylhistamine 1 nmol/L, striata of Sprague-Dawley male rats, 25° C., 1 hour, read-out: Inhibition ratio of [3H]-Nα-methylhistamine binding
T1 construct: from tissue; host or cells: rat striatum (Sprague-Dawley, male, 6 weeks), membrane homogenate
T1 sequence (Q9QYN8 whole entry): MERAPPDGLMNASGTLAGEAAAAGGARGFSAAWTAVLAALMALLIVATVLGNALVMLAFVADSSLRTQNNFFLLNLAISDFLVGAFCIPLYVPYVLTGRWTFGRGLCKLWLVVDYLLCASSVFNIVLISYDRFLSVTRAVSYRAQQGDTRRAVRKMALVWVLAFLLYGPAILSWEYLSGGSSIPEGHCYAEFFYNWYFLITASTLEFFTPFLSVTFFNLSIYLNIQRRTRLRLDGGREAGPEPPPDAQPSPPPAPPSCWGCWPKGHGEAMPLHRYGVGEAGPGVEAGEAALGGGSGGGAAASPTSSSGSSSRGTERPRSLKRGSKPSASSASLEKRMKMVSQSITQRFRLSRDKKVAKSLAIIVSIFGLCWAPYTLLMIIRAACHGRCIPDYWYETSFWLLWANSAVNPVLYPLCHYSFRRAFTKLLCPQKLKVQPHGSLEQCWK
Summary of the method: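 Rat striatum membranes (20 μg protein) incubated with [3H]-Nα-methylhistamine 1 nmol/L in 50 mmol/L Tris/HCl pH 7.4, 5 mmol/L EDTA, 1 hour at 25° C; bound ligand by filtration and scintillation counting. Nonspecific binding defined with 10 μmol/L thioperamide; % inhibition reported at 1 μmol/L compound.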

Row | SMILES | melting point [°C] | inhibition at 1 µM (histamine H3 receptor) [%] | Kd (histamine H3 receptor; rat striatum homogenate, read-out: dissociation constant Kd of [3H]-Nα-methylhistamine binding to the rat H3 receptor) [pM]
1 | CN1CCCC1CCN1CCN(CCC2CCCN2C)C1=C(C#N)C#N (centres unmarked) [Compound 4, {1,3-Bis[2-(1-methylpyrrolidin-2-yl)ethyl]imidazolidin-2-ylidene}malononitrile] | 121 to 123 | ≥ 80 | –
2 | N#CC(C#N)=C1N(CCCN2CCCCC2)CCN1CCN1CCCC1 [Compound 59, {1-(3-Piperidinopropyl)-3-[2-(pyrrolidin-1-yl)ethyl]imidazolidin-2-ylidene}malononitrile] | 63 to 64 | ≥ 80 | –
3 | N#CC(C#N)=C1N(CCCN2CCCC2)CCN1CCN1CCCC1 [Compound 60, {1-[2-(Pyrrolidin-1-yl)ethyl]-3-[3-(pyrrolidin-1-yl)propyl]imidazolidin-2-ylidene}malononitrile] | 70 to 71 | ≥ 80 | –
4 | N#CCS(=O)(=O)C=C1N(CCCN2CCCCC2)CCN1CCCN1CCCCC1 [Compound 136, [1,3-Bis(3-piperidinopropyl)imidazolidin-2-ylidene]methanesulfonylacetonitrile] | 105 to 107 | – | –
5 | CN(CCN1CCCCC1)C(=C(C#N)C#N)N1CCC(N(C)c2ccccc2)CC1 [Compound 146, {[4-(N-methyl-N-phenylamino)piperidino][N-methyl-N-(2-piperidinoethyl)amino]methylene}malononitrile] | 156 to 158 | – | –
6 | N#CC(C#N)=C(NCCN1CCCCC1)N1CCC(CN2CCCCC2)CC1 [Compound 147, [(2-Piperidinoethylamino)(4-piperidinomethylpiperidino)methylene]malononitrile] | 78 to 80 | ≥ 80 | –
7 | N#CC(C#N)=C(NCCCN1CCCCC1)N1CCC(N2CCOCC2)CC1 [Compound 164, [(3-Piperidinopropylamino) (4-morpholinopiperidino)methylene]malononitrile] | 122 to 124 | – | –
8 | N#CC(C#N)=C(NCCCN1CCCCC1)N1CCN(C2CCCCC2)CC1 [Compound 183, [(4-Cyclohexylpiperazin-1-yl)(3-piperidinopropylamino)methylene]malononitrile] | 136 to 137 | – | –
9 | CC(C)N1CCC(N2CCN(CCC3CCCN3C)C2=C(C#N)C#N)CC1 (centres unmarked) [Compound 187, {1-(1-Isopropylpiperidin-4-yl)-3-[2-(1-methylpyrrolidin-2-yl)ethyl]imidazolidin-2-ylidene}malononitrile] | – | ≥ 80 | –
10 | N#CC(C#N)=C1N(CCN2CCCCC2)c2ccccc2N1CCN1CCCCC1 [Compound 192, [1,3-Bis-(2-piperidinoethyl)benzimidazolidin-2-ylidene]malononitrile] | 127 to 128 | – | –
11 | CC(C)N1CCC(N2CCN(CCN3CCCCC3)C2=C(C#N)C#N)CC1 [Compound 207, [1-(1-Isopropylpiperidin-4-yl)-3-(2-piperidinoethyl)imidazolidin-2-ylidene]malononitrile] | – | ≥ 80 | –
12 | CC(C)N1CCC(N2CCN(CCN3CCC[C@@H]3C)C2=C(C#N)C#N)CC1 [Compound 210, {1-(1-Isopropylpiperidin-4-yl)-3-[2-((S)-2-methylpyrrolidin-1-yl)ethyl]imidazolidin-2-ylidene}malononitrile] | – | ≥ 80 | –
13 | N#CCN1CCC(N2CCN(CCCN3CCCCC3)C2=C(C#N)C#N)CC1 [Compound 214, [1-(1-Cyanomethylpiperidin-4-yl)-3-(3-piperidinopropyl)imidazolidin-2-ylidene]malononitrile] | – | ≥ 80 | –
14 | CC(C)N1CCC(N2CCN(CCCN3CCCC3C)C2=C(C#N)C#N)CC1 (centres unmarked) [Compound 219, {1-(1-Isopropylpiperidin-4-yl)-3-[3-(2-methylpyrrolidin-1-yl)propyl]imidazolidin-2-ylidene}malononitrile] | – | ≥ 80 | –
15 | N#CC(C#N)=C1N(CCCN2CCOCC2)CCN1C1CCN(CCF)CC1 [Compound 222, {1-[1-(2-Fluoroethyl)piperidin-4-yl]-3-(3-morpholinopropyl)imidazolidin-2-ylidene}malononitrile] | – | ≥ 80 | –
16 | N#CC(C#N)=C1N(CCCN2CCCCC2)CCN1C1CCN(CC(F)(F)F)CC1 [Compound 225, {1-(3-Piperidinopropyl)-3-[1-(2,2,2-trifluoroethyl)piperidin-4-yl]imidazolidin-2-ylidene}malononitrile] | 103 to 105 | – | –
17 | C=CCN1CCC(N2CCN(CCCN3CCCCC3)C2=C(C#N)C#N)CC1 [Compound 227, [1-(1-Allylpiperidin-4-yl)-3-(3-piperidinopropyl)imidazolidin-2-ylidene]malononitrile] | – | ≥ 80 | –
18 | N#CC(C#N)=C1N(CCCN2CCCCC2)CCN1C1CCN(CC2CC2)CC1 [Compound 229, [1-(1-Cyclopropylmethylpiperidin-4-yl)-3-(3-piperidinopropyl)imidazolidin-2-ylidene]malononitrile] | – | ≥ 80 | –
19 | CC(C)N1CCC(N2CCCN(CCCN3CCCCC3)C2=C(C#N)C#N)CC1 [Compound 238, [1-(1-Isopropylpiperidin-4-yl)-3-(3-piperidinopropyl)tetrahydropyrimidin-2-ylidene]malononitrile] | – | ≥ 80 | –
20 | N#CC(C#N)=C(NC1CCN(Cc2ccccc2)CC1)NC1CCN(Cc2ccccc2)CC1 [Compound 239, [Bis(1-benzylpiperidin-4-ylamino)methylene]malononitrile] | 147 to 148 | – | –
21 | C[C@@H]1CCCN1CCN1CCN(CCCN2CCC[C@@H]2C)C1=C(C#N)S(=O)(=O)c1ccccc1 [Compound 243, {3-[2-((R)-2-methylpyrrolidin-1-yl)ethyl]-1-[3-((S)-2-methylpyrrolidin-1-yl)propyl]imidazolidin-2-ylidene}benzenesulfonylacetonitrile] | – | ≥ 80 | –
22 | CNCCc1cnc[nH]1 [[^3H]-N^α-methylhistamine, reference compound] | – | – | 570 ± 40

The next lines start with results.

Row | melting point [°C] | inhibition at 1 µM (histamine H3 receptor) [%] | SMILES | Kd (histamine H3 receptor; rat striatum homogenate, read-out: dissociation constant Kd of [3H]-Nα-methylhistamine binding to the rat H3 receptor) [pM]
23 | 74 to 75 | ≥ 80 | C[C@@H]1CCCN1CCCN1CCN(CCN2CCC[C@H]2C)C1=C(C#N)C#N [Compound 55, {1-[2-((R)-2-methylpyrrolidin-1-yl)ethyl]-3-[3-((R)-2-methylpyrrolidin-1-yl)propyl]imidazolidin-2-ylidene}malononitrile] | –
24 | 95 to 96 | ≥ 80 | CC1CCCN1CCCN1CCN(CCN2CCCC2)C1=C(C#N)C#N (centres unmarked) [Compound 61, {1-[3-(2-Methylpyrrolidin-1-yl)propyl]-3-[2-(pyrrolidin-1-yl)ethyl]imidazolidin-2-ylidene}malononitrile] | –
25 | 87 to 89 | ≥ 80 | C[C@@H]1CCCN1CCCN1CCN(CCCN2CCC[C@@H]2C)C1=C(C#N)C#N [Compound 117] | –
26 | 79 to 80 | ≥ 80 | N#CC(C#N)=C1N(CCCN2CCC[C@@H]2CO)CCN1CCCN1CCC[C@@H]1CO [Compound 118, {1,3-Bis[3-((R)-2-hydroxymethylpyrrolidin-1-yl)propyl]imidazolidin-2-ylidene}malononitrile] | –
27 | 99 to 102 | ≥ 80 | CC1CCCN1CCCN1CCN(CCCN2CCC(F)(F)C2)C1=C(C#N)C#N (centres unmarked) [Compound 120, {1-[3-(3,3-Difluoropyrrolidin-1-yl)propyl]-3-[3-(2-methylpyrrolidin-1-yl)propyl]imidazolidin-2-ylidene}malononitrile] | –
28 | 91 to 93 | – | C[C@H]1CCCN1CCCN1CCN(CCCN2CCC[C@@H]2C)C1=CS(=O)(=O)CC#N [Compound 138, {1,3-Bis[3-((S)-2-methylpyrrolidin-1-yl)propyl]imidazolidin-2-ylidene}methanesulfonylacetonitrile] | –
29 | – | ≥ 80 | C[C@H]1CCCN1CCCCN1CCN(CCN2CCC[C@@H]2C)C1=C(C#N)C#N [Compound 190, {1-[4-((S)-2-methylpyrrolidin-1-yl)butyl]-3-[2-((S)-2-methylpyrrolidin-1-yl)ethyl]imidazolidin-2-ylidene}malononitrile] | –
30 | – | ≥ 80 | C[C@@H]1CCCN1CCCCN1CCN(CCN2CCC[C@H]2C)C1=C(C#N)C#N [Compound 191, {1-[4-((R)-2-methylpyrrolidin-1-yl)butyl]-3-[2-((R)-2-methylpyrrolidin-1-yl)ethyl]imidazolidin-2-ylidene}malononitrile] | –
31 | – | ≥ 80 | CC1CCCN(CCN2CCN(CCCN3CCC[C@@H]3C)C2=C(C#N)C#N)C1 (stereo partly drawn) [Compound 199, {3-[2-(3-Methylpiperidino)ethyl]-1-[3-((S)-2-methylpyrrolidin-1-yl)propyl]imidazolidin-2-ylidene}malononitrile] | –
32 | – | ≥ 80 | C[C@H]1CCCN1CCCN1CCN(CCCN2CCSCC2)C1=C(C#N)C#N [Compound 202, {1-[3-((S)-2-methylpyrrolidin-1-yl)propyl]-3-[3-(thiomorpholin-1-yl)propyl]imidazolidin-2-ylidene}malononitrile] | –
33 | – | ≥ 80 | CC1CCCN1CCCN1CCN(CCCN2CCC(=O)CC2)C1=C(C#N)C#N (centres unmarked) [Compound 203, {1-[3-(2-Methylpyrrolidin-1-yl)propyl]-3-[3-(4-oxopiperidino)propyl]imidazolidin-2-ylidene}malononitrile] | –
34 | – | ≥ 80 | CC1CCCN1CCCN1CCN(CCCN2CCCC2C)C1=C(C#N)S(=O)(=O)c1ccccc1 (centres unmarked) [Compound 244, {1,3-Bis[3-(2-methylpyrrolidin-1-yl)propyl]imidazolidin-2-ylidene}benzenesulfonylacetonitrile] | –
35 | – | ≥ 80 | C[C@@H]1CCCN1CCCN1CCN(CCCN2CCC[C@@H]2C)C1=C(C#N)S(=O)(=O)c1ccccc1 [Compound 246, {1-[3-((S)-2-methylpyrrolidin-1-yl)propyl]-3-[3-((R)-2-methylpyrrolidin-1-yl)propyl]imidazolidin-2-ylidene}benzenesulfonylacetonitrile] | –
